In brackets after ≈: the same amount, converted by molar mass.

In general, MIC refers to the least concentration at which growth counts as inhibited. High values mean weaker potency, low ones greater potency. By IC50 is commonly meant the concentration that inhibits the measured activity by half.

The subject of this test is Staphylococcus aureus (ATCC 29213). The test is described as follows: Antimicrobial activity against S. aureus (growth inhibition, OD 620 nm). Format: cell-based. The conditions noted are these: for MIC: minimum concentration to inhibit about 100 percent bacterial growth; for IC50: individual permethylated peptides. As for the experimental part: The two types of libraries of positional libraries of Example 5 were also scanned against Staphylococcus aureus a Gram-positive bacterium. Concentrations of those 5× permethylated peptide mixtures that inhibited cellular growth by 50 percent (IC50) values were determined.
The permethylated amino acid and peptides were screened against S. aureus, as described before and IC50 and MIC (minimum inhibitory concentration; minimum concentration needed to inhibit about 100 percent bacterial growth) values were determined.
Staphylococcus aureus (ATCC 29213) were grown overnight (about 18 hours) at 37° C. in Mueller-Hinton (MH) broth. This culture was reinoculated and incubated at 37° C. to reach the exponential phase of bacterial growth; i.e., a final bacterial suspension containing about 10^5 to 5×10^5 colony-forming units (CFU)/ml. The concentration of cells was established by plating 100 μl of different dilutions of the culture solution (e.g., 10^-2, 10^-3 and 10^-4) onto solid agar plates. Following an overnight (about 18 hours) incubation at 37° C., the CFU thus formed were counted on each agar plate.
96-Well tissue culture plates were utilized, with eight wells per plate containing only medium as control blanks, whereas eight other wells contained medium plus cells as a positive growth control. These controls were used to detect possible medium contamination and to provide a measure of uninhibited growth of the microorganisms.
For determination of IC50 values (concentrations necessary to inhibit 50 percent growth of bacteria), peralkylated oligopeptide sets were added to the bacterial suspension at concentrations noted before. The plates were incubated overnight (about 18 hours) at 37° C., and the optical density (OD) determined at 620 nm after different times of incubation. IC50 Values were then determined from the OD data.

Setting [1] is: Staphylococcus aureus, ATCC29213, Assay 1.
Where [2] appears, read: Staphylococcus aureus, ATCC29213, Assay 2.

As for `Cc1onc(-c2ccccc2)c1C(=O)N[C@@H]1C(=O)N2[C@@H]1SC(C)(C)[C@@H]2C(=O)O` [Oxacillin, oxacillin], the minimum inhibitory concentration (MIC) by setting is: (Assay 2) 0.125 µM (≈ 0.0502 µg/mL); under setting [1], 0.125 µM (≈ 0.0502 µg/mL). The same compound showed a 50% inhibitory concentration (IC50) under setting [1] of 42 nM and a concentration for half-maximal inhibition (IC50) under setting [2] of 370 nM.
On to `CNC(=O)[C@H](Cc1ccccc1)[N+](C)(C)C` [PerA--F, permethylated Phe N-methylamide], for which the MIC is listed as greater than 500 µM (Assay 1) and greater than 500 µM (Assay 2).
Take “Ac-FFFFFF-NH2 [N--Ac--hexaPhe, N-acetyl hexaPhe amide]”: the 50% inhibitory concentration (IC50) is, setting by setting: (Assay 1) greater than 500000 nM; (Assay 2) greater than 500000 nM. The MIC is greater than 500 µM (Assay 1) and greater than 500 µM (Assay 2).
Turning to `CC[C@H]1OC(=O)[C@H](C)[C@@H](O[C@H]2C[C@@](C)(OC)[C@@H](O)[C@H](C)O2)[C@H](C)[C@@H](O[C@@H]2O[C@H](C)C[C@H](N(C)C)[C@H]2O)[C@](C)(O)C[C@@H](C)C(=O)[C@H](C)[C@@H](O)[C@]1(C)O` [Erythromycin, erythromycin], the MIC worked out at 0.5 µM (≈ 0.367 µg/mL) (Assay 2) and 0.5 µM (≈ 0.367 µg/mL) under setting [1]. The IC50 under setting [1] was 184 nM and the IC50 under setting [2] came to 134 nM.

Values taken from patent US5846731A, “Peralkylated oligopeptide mixtures” (Torry Pines Institute for Molecular Studies, priority 1993, dated 1998).
